{"source": "patent US20090105189A1", "about": "“METHODS AND COMPOSITIONS FOR AMELIORATING OR INHIBITING DECLINE IN MEMORY OR INTELLIGENCE OR IMPROVING SAME” (priority 2006, published 2009)", "key": {"rats [1]": {"tested_on": "rats", "settings": "IC rats", "method": "(§1) Behavioral training was carried out between 10:00 AM-2:00 PM, in a blinded manner. Rats received a 4-d training session consisting of 4 trials (i.e., swims) per day to locate the hidden platform (1.5 cm below the water surface), which remained in the same position across trials for individual animals (i.e. within one of 4 quadrants). On each trial the animal was placed into the tank facing the wall at one of 4 designated start points (N, S, E, and W) and allowed to escape onto the hidden platform. A different starting point was used on each trial such that each starting point was used once each day. […] After mounting the platform, rats remained on the platform for 20 seconds. Following each trial, animals were removed from the maze and placed in a holding cage for a 30 second inter-trial interval (ITI). The latency to mount the escape platform was used as a measure of task acquisition.\n(§2) On day 5, the rats were given a probe test. For this, the platform was removed and the swim path and time spent searching in the quadrant of the pool that previously contained the platform were measured over 60 s. This provides a measurement for the retention of spatial memory and indicates whether a spatial strategy was used during hidden platform training.\n(§3) Animals were maintained as described for Example 13. For the first experiment (FIGS. 24-26), male pups were removed at postnatal d 23, separated into small groups, and allowed to acclimatize for 1 week. Pups were assigned to either the […] or IC condition; rats were matched according to body weight at PN day 23. […] Thus rats were fed the diets and were enriched or impoverished from 30-120 d of age.\nFor the second experiment, 4 groups of IC rats were utilized, as depicted below:\nFour diets were prepared containing different amounts of CDP-choline. Mean weekly intakes were monitored for all rats, and the diets were adjusted so that rats would receive 500 mg/kg/d.\n(§4) The water maze was a black circular tank 1.83 m in diameter and 0.55 m in height, filled with water (25 C) to a depth of 20 cm and located in a room containing several extramaze cues. Four starting positions (N, S, E, and W) were spaced around its perimeter, dividing the pool into 4 equal quadrants. The rectangular clear Plexiglas escape platform used for the spatial task (11×14×19 cm) was submerged at a depth of […]. For the cured version of the water maze, a white rubber ball 8 cm in diameter attached to the top of the submerged platform protruded above the water surface. The platform could be used as a step to mount the ball to escape from the water."}, "rats [2]": {"tested_on": "rats", "settings": "EC and IC rats, choline-supplemented vs control diet", "source_text": "as §3, §4"}, "Sprague Dawley rats [3]": {"tested_on": "Sprague Dawley rats", "assay": "Hidden platform water maze and probe test in EC and IC rats on UMP diet", "type": "in vivo, rat", "settings": "for Rate of acquisition of hidden platform water maze task: 0.1% UMP-2Na+ diet 3 months", "method": "as §1, §2"}, "Sprague Dawley rats [4]": {"tested_on": "Sprague Dawley rats", "assay": "Visible platform water maze task in EC and IC rats on UMP diet", "type": "in vivo, rat", "settings": "UMP-supplemented diet", "quoted_text": "Four starting positions (north, south, east, west) were spaced around the perimeter of the tank, dividing the pool into four equal quadrants. For the visible platform version of the water maze, a white rubber ball (8 cm in diameter) was attached to the top of the submerged platform and protruded above the water surface. The platform could be used as a step to mount the ball to escape the water. A video camera was mounted directly above the water maze; this camera was linked to a computer with video tracking software to automatically record the escape latency (time to reach the platform), distance traveled (length of swim path taken to find the platform), and swim speed (HVS Image Ltd; Buckingham, UK). One week after completion of the 4-day/4 trials per day spatial training task, the rats from the above Example received 4 training sessions consisting of 4 trials (i.e., swims) per day. On each trial the animal was placed into the tank facing the wall at one of four designated start points (N, S, E, and W) and allowed to escape onto the visibly cued platform. A different starting point was used on each trial such that each starting point was used each day. In addition, the visible escape platform was placed in a different quadrant on each trial such that each of the four quadrants contained the escape platform once each day. […]"}, "[5]": {"assay": "Body weight of rats on UMP-supplemented diet", "type": "in vivo, rat", "source_text": "Animals were weighed weekly to ensure that UMP-treated and untreated rats were eating equivalent amounts of food. […] Also, there was no difference in body weight between the EC and IC groups."}, "[6]": {"assay": "Plasma uridine levels after oral UMP in healthy human subjects", "type": "in vivo", "settings": "humans, oral UMP 500, 1000 or 2000 mg; baseline and 1, 2, 4, 8 hr", "method": "1-milliliter (mL) samples of heparinized plasma were spiked with 1 μg fluoro-uridine for use as an internal standard, then deproteinized by adding methanol (5 mL).\nAll steps were performed at 4° C. Boronate affinity columns (Affigel-601, Bio-Rad) were primed with two 5-mL ammonium acetate washes, samples were applied, and columns were washed again with ammonium acetate, after which the nucleosides were eluted with 0.1 N formic acid (7 mL). Eluates were lyophilized, then reconstituted in 100 μL water for HPLC analysis.\nHPLC analysis was performed using a Beckman System Gold apparatus (Beckman Instruments) equipped with a Rainin Dynamax Microsorb C18 column (3 μm packing; 4.6×100 mm) at room temperature. The standard HPLC method is described in Lopez-Coviella et al, (J. Neurochem 65: 889-894, 1995). For modified HPLC, an isocratic elution buffer was used containing 0.004 N potassium phosphate buffer (pH 5.8) and 0.1% methanol instead of formic acid, flowing at 1 mL/min and heated to 35°.\nEight healthy subjects (5 male, 3 female, 27-67 years old) were instructed to fast overnight and given sequentially increasing doses (500, 1000, and 2000 mg) of disodium UMP (Numico, Wageningen, NL) at 7-8 AM on each of three days, separated by at least a three-day washout period. All subjects were given lunch. Blood samples were drawn over an eight-hour period into heparinized tubes. […]"}, "Aging rats": {"tested_on": "Aging rats", "assay": "Morris water maze in aging rats on UMP diet", "type": "in vivo, rat", "settings": "aging rats 18 months, 2.5% diet, six weeks", "source_text": "Aging rats (I 8 months, 500 g) were fed a control diet or a diet containing 2.5% UMP diets for six weeks. They were then shown a hidden platform in a six-foot diameter pool of water, placed somewhere in each of the four quadrants of the pool in turn, and were allowed 90 seconds in each trial to attempt to relocate the platform by swimming, and the swimming time “mean escape latency” recorded. The set of four trials was repeated on each of four consecutive days. The platform was in the same place each day. This test, known as the Morris water maze, is an indicator of spatial memory."}, "gerbils [7]": {"tested_on": "gerbils", "assay": "Food pellet learning assay (radial arm maze) in gerbils", "type": "in vivo, gerbil", "settings": "young adult gerbils, 0.1, 0.5 or 2.5% UMP chow, three weeks", "method": "Male young adult gerbils fed control or UMP-containing chow (0, 0.1, 0.5 or 2.5%) ad lib for three weeks were tested in a radial arm maze, consisting of a central chamber with four branches primed with a small food pellet at the end of each. Before testing, animals were fasted overnight; each animal was then placed in the central chamber and allowed up to 180 seconds to find all of the pellets. A shorter time required to find the pellets is indicative of improved learning and spatial memory."}, "Fischer 344 rats": {"tested_on": "Fischer 344 rats", "assay": "In vivo microdialysis of striatal neurotransmitter release in aged rats on UMP diet", "set-up": "species or system rat", "settings": "for K+-evoked striatal DA release (basal = 100%): control 283±9%"}, "[8]": {"assay": "Brain CDP-choline levels after oral UMP in gerbils", "type": "in vivo, gerbil", "settings": "UMP 1 mmole/kg by gavage, for 30 min after administration", "method": "Brain tissue or cells was dissolved in methanol/chloroform (1:2 vol/vol), centrifuged, and the aqueous phase was dried under vacuum, resuspended in 100-200 μL water and separated by HPLC on an ion-exchange column (Alltech Hypersil APS-2, 5 μM, 250×4.6 mm). CDP-choline was eluted with a linear gradient of NaH2PO4 buffers A (1.75 mM NaH2PO4, pH 2.9) and B (500 mM, pH 4.5), which allowed resolution of CDP-choline from closely co-eluting substances such as UMP over 40 min. The retention time for CDP-choline was 9.5 min. Individual nucleotide peaks were detected by UV absorption at […], and were identified by comparison with the positions of authentic standards, as well as by the addition of nucleotide standards to selected samples."}, "gerbils [9]": {"tested_on": "gerbils", "assay": "Working memory and reference memory assay (modified radial arm maze) in gerbils", "type": "in vivo, gerbil", "settings": "0.1% UMP diet, four weeks", "source_text": "Groups of ten gerbils fed control or 0.1% UMP diet for four weeks and trained to successfully find all of the food pellets as described above were then given a modified test, in which only two arms of the maze (but always the same two) contained food pellet rewards. In this test, a working memory error is one in which a gerbil revisits an arm from which it has already taken the pellet that day."}, "[10]": {"settings": "500 mg/kg/d for 3 mo, 4 d of training"}, "[11]": {"settings": "aged rats, UMP diet 1 week or 6 weeks vs control"}}, "data": [{"compound": "cytidine-diphosphocholine", "values": [{"measurement": "Escape latencies of initial trials on last 3 d of spatial training", "setting": "rats [1]; 500 mg/kg/d for 3 mo", "value": "restored normal behavior"}, {"measurement": "Swim time in target quadrant, 60-sec probe test", "setting": "rats [1]; 500 mg/kg/d for 3 mo", "value": "restored normal behavior"}, {"measurement": "Distance traveled to find the hidden platform", "setting": "rats [1]; [10]", "value": "restored normal behavior"}, {"measurement": "Escape latencies, hidden platform task", "setting": "rats [1]; [10]", "value": "exhibited normal latencies"}, {"measurement": "Escape latencies, hidden platform task (second experiment)", "setting": "rats [1]; high-choline diet for 3 mon vs untreated IC rats", "value": "different significantly from untreated IC rats"}, {"measurement": "Swim time in target quadrant, 60-sec probe test (second experiment)", "setting": "rats [1]; high-choline diets for 3 mon", "value": "swam for a significantly longer time in the target quadrant"}, {"measurement": "Escape latencies, visible platform task", "setting": "rats [2]", "value": "No main effects of diet"}]}, {"compound": "O=c1ccn([C@@H]2O[C@H](COP(=O)([O-])[O-])[C@@H](O)[C@H]2O)c(=O)[nH]1.[Na+].[Na+]", "note": "[UMP, uridine-5′-monophosphate disodium]", "values": [{"measurement": "Rate of acquisition of hidden platform water maze task", "setting": "Sprague Dawley rats [3]; EC rats, vs EC-CONT (P<0.09)", "value": "acquired the task at a faster rate than EC-CONT rats"}, {"measurement": "Rate of acquisition of hidden platform water maze task", "setting": "Sprague Dawley rats [3]; IC rats, vs IC-CONT", "value": "acquired the task at a significantly faster rate than did IC-CONT rats"}, {"measurement": "Time in the correct quadrant, 60 s probe test", "setting": "Sprague Dawley rats [3]; IC rats, UMP diet, vs IC-CONT", "value": "spent significantly more time in the correct quadrant than IC-CONT rats"}, {"measurement": "Striatal-based (stimulus-response) memory, visible platform water maze", "setting": "Sprague Dawley rats [4]", "value": "little or no effect"}, {"measurement": "Mean body weights", "setting": "[5]; Sprague Dawley EC/IC rats, 0.1% UMP-2Na+ diet, vs control groups", "value": "No significant differences in mean body weights"}, {"measurement": "Body weight", "setting": "[5]; aged Fischer 344 rats, 2.5% UMP-2Na+ diet, 0-6 weeks", "value": "neither UMP-diet (vs. control) nor UMP×time interaction affected body weight"}, {"measurement": "Plasma uridine levels", "setting": "[6]", "value": "increased in response to oral UMP in a dose-dependent fashion"}, {"measurement": "Time required to reach the platform (mean escape latency), Morris water maze", "setting": "Aging rats", "value": "statistically significant reduction in the time required to reach the location of the platform"}, {"measurement": "Time required to find the food pellets, radial arm maze", "setting": "gerbils [7]", "value": "reduced the time required for gerbils to find the pellet in a dose-dependent manner"}, {"measurement": "Basal DA levels in striatal dialysate", "setting": "Fischer 344 rats; aged rats, 2.5% UMP diet 1 or 6 weeks vs control", "value": "did not affect"}, {"measurement": "K+-evoked striatal DA release (basal = 100%)", "setting": "Fischer 344 rats; aged rats, 2.5% UMP diet 1 week, not significant", "value": "316±15", "unit": "%"}, {"measurement": "K+-evoked striatal DA release (basal = 100%)", "setting": "Fischer 344 rats; aged rats, 2.5% UMP diet 6 weeks", "value": "341±21", "unit": "%"}, {"measurement": "Basal DOPAC levels in striatal dialysate", "setting": "Fischer 344 rats; [11]", "value": "no effects"}, {"measurement": "Basal HVA levels in striatal dialysate", "setting": "Fischer 344 rats; [11]", "value": "no effects"}, {"measurement": "Basal release of acetylcholine in corpus striatum", "setting": "Fischer 344 rats; rats, dietary UMP", "value": "increase the basal release"}, {"measurement": "Brain CDP-choline levels", "setting": "[8]", "value": "rose significantly in a linear fashion"}, {"measurement": "Reference memory errors", "setting": "gerbils [9]", "value": "reduced numbers"}, {"measurement": "Working memory errors", "setting": "gerbils [9]", "value": "reduced numbers"}]}]}
